From patent publication US9458203B2, “Integrin-blocking polypeptides and uses thereof” (priority 2011, dated 2016)
Where two headings read alike, the source gives them in different places. Ends that are not written are not given here.

Key:
melanoma B16F10 = assay: transplanted melanoma B16F10 in C57BL/6 black mice; conditions: mouse, in vivo
Protocol: Hypodermically injecting polypeptides and other drugs into the left axillary region of mice from the experimental groups respectively while administering only equal quantity of physiological saline to the mice from the negative control group. The total medication period was 14 days, during which cyclophosphamide was administered once every other day, taxol once every three days, low-dose polypeptide twice a day and all other drugs once a day.

[1] = test system: human cervical cancer HeLa; format: in vivo, nude mice; conditions: mouse, in vivo
[2] = test system: human prostate cancer DU-145; format: in vivo, nude mice; conditions: mouse, in vivo
Protocol: (§2) Taking a certain amount of vigorously growing tumor tissue, grinding the tumor tissue under sterile conditions and preparing cell suspension at the concentration of 1×10^7 cells/ml; then hypodermicaly inoculating 0.1 ml of the cell suspension into the right axillary region of nude mice. Keeping measuring the diameter of the transplanted tumor with a vernier caliper, and randomly dividing the mice into groups when the volume of the tumor reached 100-200 mm^3. […] Measuring the tumor diameter once every other day and recording the body weight of mice simultaneously. Intravenously injecting polypeptides to mice from test groups while administering equal quantity of physiological saline to mice from the negative control group. The total medication period was 14 days. Avastin was adopted to set up a positive control group; it was administered through the tail vein once every three days while all other drugs were administered through the tail vein once a day. Leaving mice for a one-week rest after 14 days' medication, then (21 days after medication) killing the mice, surgically dissecting the tumors and measuring the weight of tumors. The tumor volume (TV) was calculated in accordance with the following formula: TV=½×a×b^2

[3] = format: in vivo, nude mice; conditions: mouse, in vivo
Excerpt: (§1) The total medication period was 14 days.

[4] = test system: human esophageal cancer Ec109; format: in vivo, nude mice; conditions: mouse, in vivo
Excerpt: as §1

[5] = test system: human testicular cancer 5637; format: in vivo, nude mice; conditions: mouse, in vivo
Excerpt: as §1

sarcoma HT-1080 = format: in vivo, nude mice; conditions: mouse, in vivo
Excerpt: as §1

[6] = test system: human bladder cancer HT1376; assay: heterotransplanted human bladder cancer HT1376 in nude mice; format: in vivo; conditions: for final weight: daily, tail vein injection
Excerpt: as §1

[7] = test system: human pancreatic cancer SW-1990; assay: heterotransplanted human pancreatic cancer SW-1990 in nude mice; format: in vivo; conditions: for final weight: daily, tail vein injection
Excerpt: as §1

human colon cancer HT-29 = format: in vivo, nude mice; conditions: mouse, in vivo
Protocol: as §2

[8] = test system: human thyroid cancer SW-579; format: in vivo, nude mice; conditions: mouse, in vivo
Protocol: as §2

human renal cancer A498 = format: in vivo, nude mice; conditions: mouse, in vivo
[9] = test system: human ovarian cancer SK-OV-3; format: in vivo, nude mice; conditions: mouse, in vivo
Protocol: as §2

[10] = test system: human laryngeal cancer Hep-2; assay: heterotransplanted human laryngeal cancer Hep-2 in nude mice; format: in vivo; conditions: for final weight: body weight of nude mice, daily, tail vein injection
Excerpt: as §1

[11] = test system: human breast cancer MDA-MB-231; conditions: mouse, in vivo
[12] = test system: human gastric cancer MGC-803; conditions: mouse, in vivo
Excerpt: (§3) Keeping measuring the diameter of the transplanted tumor with a vernier caliper, and randomly dividing the mice into groups when the volume of the tumor reached 100-200 mm^3. Observing the dynamic effect of integrin-blocking polypeptides on inhibiting the growth of the tumor by means of documenting the change of tumor diameters. Measuring the tumor diameter once every other day and recording the body weight of mice simultaneously. Intravenously injecting polypeptides to mice from test groups while administering equal quantity of physiological saline to mice from the negative control group. The total medication period was 14 days. Avastin was adopted to set up a positive control group; it was administered through the tail vein once every three days while all other drugs were administered through the tail vein once a day. Leaving mice for a one-week rest after 14 days' medication, then (21 days after medication) killing the mice, surgically dissecting the tumors and measuring the weight of tumors. The tumor volume (TV) was calculated in accordance with the following formula: TV=½×a×b^2

human lung cancer H460 = conditions: mouse, in vivo
Protocol: (§4) Taking a certain amount of vigorously growing tumor tissue, grinding the tumor tissue under sterile conditions and preparing cell suspension at the concentration of 1×10^7 cells/ml; then hypodermicaly inoculating 0.1 ml of the cell suspension into the right axillary region of nude mice. Keeping measuring the diameter of the transplanted tumor with a vernier caliper, and randomly dividing the mice into groups when the volume of the tumor reached 100-200 mm^3. Observing the dynamic effect of integrin-blocking polypeptides on inhibiting the growth of the tumor by means of documenting the change of tumor diameters. Measuring the tumor diameter once every other day and recording the body weight of mice simultaneously. Intravenously injecting polypeptides to mice from test groups while administering equal quantity of physiological saline to mice from the negative control group. The total medication period was 14 days. Avastin was adopted to set up a positive control group; it was administered through the tail vein once every three days while all other drugs were administered through the tail vein once a day. Leaving mice for a one-week rest after 14 days' medication, then (21 days after medication) killing the mice, surgically dissecting the tumors and measuring the weight of tumors. The tumor volume (TV) was calculated in accordance with the following formula: TV=½×a×b^2
(§5) Taxol used in the positive control group was administered once every 3 days through tail vein injection, while drugs of all other groups were administered on daily basis through tail vein injection.

[13] = test system: human liver cancer SMMC-7721; conditions: mouse, in vivo
Protocol: as §4, §5

[14] = test system: human endometrial cancer HHUA; conditions: mouse, in vivo
Protocol: as §4, §5

[15] = test system: human gallbladder cancer GBC-SD; conditions: mouse, in vivo
Protocol: as §4
(§6) Avastin used in the positive control group was administered once every 2 days through tail vein injection, while drugs of all other groups were administered on daily basis through tail vein injection.

human brain tumor SF763 = conditions: mouse, in vivo
Protocol: as §4, §5

[16] = test system: human rectal cancer Colo 320; conditions: mouse, in vivo
Protocol: as §4, §5

[17] = test system: human gastric cancer MGC-803; assay: heterotransplanted human gastric cancer MGC-803 in nude mice; conditions: for final weight: tail vein daily
Excerpt: as §3

[18] = test system: human breast cancer MDA-MB-231; assay: heterotransplanted human breast cancer MDA-MB-231 in nude mice; conditions: for final weight: tail vein once a day, 14 days
[19] = test system: human gallbladder cancer GBC-SD; assay: heterotransplanted human gallbladder cancer GBC-SD in nude mice; conditions: for final weight: daily, tail vein injection
Protocol: as §4, §6

[20] = in contrast with the negative control group

FQPVLHLVALNSPLSGGMRGIRGADFQCFQQARAVGLAGTFRA [polypeptide I]
body weight of animals, in words (melanoma B16F10): no significant change
toxic and side effects, in words (melanoma B16F10): no significant toxic and side effects
body weight of animals, in words [1]: no significant change in body weight
toxic and side effects, in words [1]: no obvious toxic and side effects
body weight of animals, in words [2]: no significant change in body weight
toxic and side effects, in words [2]: no obvious toxic and side effects
body weight of animals, in words [3]: no significant change in body weight
body weight of animals, in words [4]: no significant change in body weight
toxic and side effects, in words [4]: no obvious toxic and side effects
toxic and side effects, in words [5]: no obvious toxic and side effects
body weight of animals, in words (sarcoma HT-1080): no significant change in body weight
toxic and side effects, in words (sarcoma HT-1080): no obvious toxic and side effects
final weight (sarcoma HT-1080; 0.75 mg/kg): 22.99 ± 0.51 g
final weight (sarcoma HT-1080; 1.5 mg/kg): 23.10 ± 0.64 g
final weight (sarcoma HT-1080; 3 mg/kg): 23.13 ± 0.38 g
final weight ([6]; 0.75 mg/kg/time): 23.17 ± 0.58 g
final weight ([6]; 1.5 mg/kg/time): 22.88 ± 0.66 g
final weight ([6]; 3 mg/kg/time): 23.14 ± 0.54 g
body weight of animals, in words [6, 20]: no significant change in body weight
toxic and side effects, in words ([6]; mouse, in vivo): no obvious toxic and side effects
final weight ([7]; 0.75 mg/kg/time): 23.06 ± 0.64 g
final weight ([7]; 1.5 mg/kg/time): 23.03 ± 0.65 g
final weight ([7]; 3 mg/kg/time): 22.86 ± 0.65 g
body weight of animals, in words [7, 20]: no significant change in body weight
toxic and side effects, in words ([7]; mouse, in vivo): no obvious toxic and side effects
body weight of animals, in words (human colon cancer HT-29): no significant change in body weight
toxic and side effects, in words (human colon cancer HT-29): no obvious toxic and side effects
body weight of animals, in words [8]: no significant change in body weight
toxic and side effects, in words [8]: no obvious toxic and side effects
body weight of animals, in words (human renal cancer A498): no significant change in body weight
toxic and side effects, in words (human renal cancer A498): no obvious toxic and side effects
body weight of animals, in words [9]: no significant change in body weight
toxic and side effects, in words [9]: no obvious toxic and side effects
final weight ([9]; 0.75 mg/kg): 23.09 ± 0.59 g
final weight ([9]; 1.5 mg/kg): 22.96 ± 0.59 g
final weight ([9]; 3 mg/kg): 23.16 ± 0.51 g
final weight ([10]; 0.75 mg/kg/time): 22.88 ± 0.63 g
final weight ([10]; 1.5 mg/kg/time): 23.21 ± 0.62 g
final weight ([10]; 3 mg/kg/time): 22.99 ± 0.62 g
body weight of animals, in words [10, 20]: no significant change in body weight
toxic and side effects, in words ([10]; mouse, in vivo): no obvious toxic and side effects
toxic and side effects, in words [11]: no obvious toxic and side effects
toxic and side effects, in words [12]: no obvious toxic and side effects
body weight of animals, in words (human lung cancer H460): no significant change in body weight
toxic and side effects, in words (human lung cancer H460): no obvious toxic and side effects
body weight of animals, in words [13]: no significant change in body weight
toxic and side effects, in words [13]: no obvious toxic and side effects
body weight of animals, in words [14]: no significant change in body weight
toxic and side effects, in words [14]: no obvious toxic and side effects
toxic and side effects, in words [15]: no obvious toxic and side effects
body weight of animals, in words (human brain tumor SF763): no significant change in body weight
toxic and side effects, in words (human brain tumor SF763): no obvious toxic and side effects
final weight (human brain tumor SF763; 0.75 mg/kg): 22.90 ± 0.69 g
final weight (human brain tumor SF763; 1.5 mg/kg): 22.99 ± 0.62 g
final weight (human brain tumor SF763; 3 mg/kg): 20.94 ± 0.47 g
body weight of animals, in words [16]: no significant change in body weight
toxic and side effects, in words [16]: no obvious toxic and side effects
final weight ([16]; 0.75 mg/kg): 23.11 ± 0.61 g
final weight ([16]; 1.5 mg/kg): 22.87 ± 0.57 g
final weight ([16]; 3 mg/kg): 20.99 ± 0.66 g
final weight ([17]; 0.75 mg/kg/time): 22.98 ± 0.60 g
final weight ([17]; 1.5 mg/kg/time): 22.66 ± 0.61 g
final weight ([17]; 3 mg/kg/time): 23.23 ± 0.67 g
body weight of animals, in words [17, 20]: no significant change in body weight
final weight ([18]; 0.75 mg/kg/time): 22.28 ± 1.75 g
final weight ([18]; 1.5 mg/kg/time): 20.21 ± 1.97 g
final weight ([18]; 3 mg/kg/time): 19.34 ± 1.13 g
body weight of animals, in words [18, 20]: no significant change in body weight
final weight ([19]; 0.75 mg/kg/time): 22.95 ± 0.46 g
final weight ([19]; 1.5 mg/kg/time): 23.04 ± 0.55 g
final weight ([19]; 3 mg/kg/time): 22.89 ± 0.51 g
body weight of animals, in words [19, 20]: no significant change in body weight
